Results taken from US7794994B2 (Kemeta, LLC, priority 2001, dated 2010).

Assays:
[1] = system: S-ADH from X. autotrophicus strain Py2; test: Secondary alcohol dehydrogenase NADH oxidation spectrophotometric assay; type: biochemical, Xanthobacter autotrophicus strain Py2; settings: for Relative S-ADH Activity (%) X. Py2, alcohol oxidation: alcohol oxidation rates, pH 7.6, 2.5 mM substrate, 0.2 mM NAD+, 2-propanol = 100, NA = no activity detected; for Relative S-ADH Activity (%) X. Py2, ketone reduction: ketone reduction rates, pH 6.2, 2.5 mM substrate, 0.2 mM NADH, acetone = 100; for specific activity, alcohol oxidation: at pH 7.8
Method: (§1) Assays were performed in 2 mL quartz cuvettes and contained NAD(H) (0.2 mM), potassium phosphate buffer (25 mM), and a source of enzyme (cell-free extracts, column fractions, or purified enzyme) in a total reaction volume of 1 mL at pH 6.2 ([…]) at 30° C. Assays were pre-incubated for 1.5 min. at 30° C. with all assay components except substrate. Assays were initiated by addition of substrate (2.5 mM) and monitored over time by measuring the change in absorbance at 340 nm (∈340 of 6.22 mM^−1·cm^−1 for NADH).
Data analysis. Kinetic constants (Km and Vmax) were calculated by fitting initial rate data to the Michaelis-Menten equation and using the software KaleidaGraph Fourth Edition, (Synergy Software, Reading, Pa.).

S-ADH from T. brockii = molecular target: T1, S-ADH from T. brockii (Thermoanaerobacter brockii, UniProt P14941); test: S-ADH spectrophotometric assay, T. brockii S-ADH; type: biochemical, Thermoanaerobium brockii; settings: for Relative S-ADH Activity (%) T. brockii, ketone reduction: ketone reduction rates, pH 6.2, 2.5 mM substrate, 0.2 mM NADPH, acetone = 100
T1 sequence (P14941 1-352): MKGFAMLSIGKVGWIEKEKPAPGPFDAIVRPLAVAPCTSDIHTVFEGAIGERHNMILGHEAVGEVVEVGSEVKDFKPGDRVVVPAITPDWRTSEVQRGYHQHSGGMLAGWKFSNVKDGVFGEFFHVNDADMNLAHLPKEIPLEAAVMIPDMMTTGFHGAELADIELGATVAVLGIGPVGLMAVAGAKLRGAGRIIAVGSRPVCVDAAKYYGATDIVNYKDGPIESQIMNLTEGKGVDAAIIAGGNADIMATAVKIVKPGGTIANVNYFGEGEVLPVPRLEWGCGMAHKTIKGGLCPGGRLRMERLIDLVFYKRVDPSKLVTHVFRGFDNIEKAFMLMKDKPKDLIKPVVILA
Method: […] Assays were pre-incubated for 1.5 min. at 30° C. with all assay components except substrate. Assays were initiated by addition of substrate (2.5 mM) and monitored over time by measuring the change in absorbance at 340 nm (∈340 of 6.22 mM^−1·cm^−1 for NADH).

[2] = system: S-ADH from M. vaccae JOB-5; test: S-ADH spectrophotometric assay, propane-grown M. vaccae JOB-5; type: biochemical, Mycobacterium vaccae strain JOB-5; settings: for Relative S-ADH Activity (%) JOB 5, alcohol oxidation: alcohol oxidation rates, pH 7.6, 2.5 mM substrate, 0.2 mM NAD+, 2-propanol = 100, NA = no activity detected; for Relative S-ADH Activity (%) JOB 5, ketone reduction: ketone reduction rates, pH 6.2, 2.5 mM substrate, 0.2 mM NADH, acetone = 100
Method: as §1

S-ADH from C. boidinii = test: S-ADH spectrophotometric assay, C. boidinii S-ADH; type: biochemical, Candida boidinii; settings: pH 7.6, 5 mM substrate; for Relative S-ADH Activity (%) C. boidinii, alcohol oxidation: alcohol oxidation rates, 0.2 mM NAD+, 2-propanol = 100; for Relative S-ADH Activity (%) C. boidinii, ketone reduction: ketone reduction rates, 0.2 mM NADH, acetone = 100
Method: Assays were performed in 2 mL quartz cuvettes and contained NAD(H) (0.2 mM), potassium phosphate buffer (25 mM), and a source of enzyme (cell-free extracts, column fractions, or purified enzyme) in a total reaction volume of 1 mL at pH 6.2 ([…]) at 30° C. Assays were pre-incubated for 1.5 min. at 30° C. with all assay components except substrate. […]

S-ADH from strain IP-1 = test: S-ADH spectrophotometric assay, partially purified S-ADH of isolate IP-1; type: biochemical, isopropanol-grown bacterial strain TDCC IP-1; settings: for Relative S-ADH Activity (%) IP-1, alcohol oxidation: alcohol oxidation rates, pH 7.6, 2.5 mM substrate, 0.2 mM NAD+, 2-propanol = 100, NA = no activity detected; for Relative S-ADH Activity (%) IP-1, ketone reduction: ketone reduction rates, pH 6.2, 2.5 mM substrate, 0.2 mM NADH, acetone = 100
Method: Protein purifications. […] Secondary alcohol dehydrogenase (S-ADH) from X. autotrophicus Py2 was purified via the following protocol. Cell-free extracts (380 mL) of isopropanol-grown X. autotrophicus Py2 (150 g) were prepared as described above, and applied to a 5×15 cm column of DEAE-Sepharose FAST FLOW (Diethylaminoethyl cross-linked agarose bead material; Catalog number 17-0709-10, Amersham Pharmacia Biotech, Piscataway, N.J.)) equilibrated in buffer A (25 mM MOPS (3-(N-morpholino)propanesulfonic acid), pH 7.6, 5% glycerol, 1 mM dithiothreitol) at a flow rate of 10 mL/min. After loading, the column was washed with […] buffer A and developed with a 2400 mL linear gradient of 90-290 mM KCl in buffer A. Fractions containing S-ADH activity were pooled and dialyzed against 2 L of 25 mM potassium phosphate (pH 6.2) containing 5% glycerol (buffer B) for 16 h at 4° C. […] After washing the column with 30 mL of buffer B, S-ADH was eluted with 20 mL of buffer A containing 10 mM NAD^+. Fractions containing S-ADH were then dialyzed against 2 L of buffer A for 16 h at 4° C., concentrated by ultrafiltration (using a YM30 ultrafiltration membrane; catalog no. 13722, from Millipore, Bedford, Mass.), and frozen in liquid nitrogen. Partially purified S-ADH from bacterial screen cultures was prepared as follows: cell-free extracts from 1 to 5 g of cell paste were prepared as described above and applied to a 5 mL HI TRAP Q column (quaternary, tetraethylammonium, cross-linked agarose bead material for use as an anion exchange matrix; catalog number 17-1153-01, Amersham Pharmacia Biotech) equilibrated in 100 mM MOPS, pH 7.6, containing 5% (v/v) glycerol (buffer C). The column was washed with 10 mL buffer C and developed with a 100 mL linear gradient of 0 to 100 mM NaCl in buffer C. Fractions containing S-ADH activity were pooled, concentrated to 0.5 mL using a 30 kDa MWCO (“molecular weight cut-off”) centrifugal membrane (catalog number UFV4BTK25, Millipore), and stored at −80° C.
as §1

[3] = molecular target: T2, acetone carboxylase coupled to β-hydroxybutyrate dehydrogenase (Xanthobacter versatilis, UniProt Q8RM03+Q8RM04); test: Acetone carboxylase coupled to NADH oxidation spectrophotometric assay; type: biochemical, X. autotrophicus strain Py2; settings: alternative compounds in coupled enzyme system
T2 construct: host or cells: X. autotrophicus strain Py2 (native organism; enzyme obtained from Prof; S. A. Ensign / purified as previously published)
T2 sequence (Q8RM03 1-776): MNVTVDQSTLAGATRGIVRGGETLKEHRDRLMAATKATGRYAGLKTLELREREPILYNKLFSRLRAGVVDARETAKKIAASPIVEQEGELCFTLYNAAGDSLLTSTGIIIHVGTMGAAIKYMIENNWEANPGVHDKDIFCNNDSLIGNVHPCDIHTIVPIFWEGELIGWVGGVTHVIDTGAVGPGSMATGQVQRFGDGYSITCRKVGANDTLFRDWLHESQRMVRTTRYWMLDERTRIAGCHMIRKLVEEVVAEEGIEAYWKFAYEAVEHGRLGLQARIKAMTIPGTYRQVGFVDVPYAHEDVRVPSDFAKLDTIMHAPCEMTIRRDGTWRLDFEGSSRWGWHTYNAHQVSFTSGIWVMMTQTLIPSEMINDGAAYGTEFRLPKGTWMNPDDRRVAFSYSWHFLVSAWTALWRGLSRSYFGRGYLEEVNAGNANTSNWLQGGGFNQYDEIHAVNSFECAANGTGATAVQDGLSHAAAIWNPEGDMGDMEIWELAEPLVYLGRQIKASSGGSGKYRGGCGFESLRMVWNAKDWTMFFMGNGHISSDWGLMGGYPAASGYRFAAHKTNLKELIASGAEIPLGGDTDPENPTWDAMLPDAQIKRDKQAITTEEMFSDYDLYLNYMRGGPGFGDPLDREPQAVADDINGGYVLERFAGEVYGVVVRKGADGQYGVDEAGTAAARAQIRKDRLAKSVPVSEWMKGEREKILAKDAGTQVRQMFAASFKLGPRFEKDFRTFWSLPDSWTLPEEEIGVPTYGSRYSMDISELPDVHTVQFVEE
T2 sequence (Q8RM04 1-717): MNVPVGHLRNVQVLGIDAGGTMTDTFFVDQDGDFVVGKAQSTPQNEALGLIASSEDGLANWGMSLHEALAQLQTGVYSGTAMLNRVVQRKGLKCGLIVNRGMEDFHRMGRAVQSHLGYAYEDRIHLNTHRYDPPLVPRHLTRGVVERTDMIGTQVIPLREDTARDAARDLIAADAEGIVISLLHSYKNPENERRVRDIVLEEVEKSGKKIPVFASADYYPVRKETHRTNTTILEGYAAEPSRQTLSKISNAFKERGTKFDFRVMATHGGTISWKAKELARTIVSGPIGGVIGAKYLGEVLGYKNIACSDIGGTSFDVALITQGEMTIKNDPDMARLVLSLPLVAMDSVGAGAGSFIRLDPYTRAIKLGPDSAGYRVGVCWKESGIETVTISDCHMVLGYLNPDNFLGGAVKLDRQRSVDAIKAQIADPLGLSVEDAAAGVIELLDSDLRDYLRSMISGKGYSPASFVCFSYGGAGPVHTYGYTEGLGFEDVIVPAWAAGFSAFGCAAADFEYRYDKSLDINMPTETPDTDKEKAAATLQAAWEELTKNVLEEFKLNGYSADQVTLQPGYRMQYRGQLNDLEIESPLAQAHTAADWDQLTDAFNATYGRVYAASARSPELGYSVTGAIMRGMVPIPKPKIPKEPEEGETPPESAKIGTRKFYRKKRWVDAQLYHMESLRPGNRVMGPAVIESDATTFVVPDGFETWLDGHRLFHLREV
T2 sequence (Q8RM02 2-168 partner limits assumed): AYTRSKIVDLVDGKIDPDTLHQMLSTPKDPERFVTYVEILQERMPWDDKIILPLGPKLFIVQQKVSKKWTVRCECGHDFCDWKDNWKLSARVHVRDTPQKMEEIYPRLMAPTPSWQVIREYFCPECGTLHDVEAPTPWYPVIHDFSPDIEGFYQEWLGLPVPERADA
Method: Assays were performed in 2 mL (1 cm path length) quartz cuvettes that had been modified by fusing a serum bottle-style quartz top (7×13 mm at mouth), allowing the cuvettes to be sealed with a red rubber serum stopper. […] The addition of […] (3 U) and NADH (0.2 mM) allowed acetoacetate formation to be coupled to the oxidation of NADH. […] The reaction was monitored by measuring the decrease in absorbance at 340 nm (∈340 of 6.22 mM^−·cm^−1 for NADH) over time in an Agilent Technologies (Palo Alto, Calif.) model 8453 UV-Visible Spectroscopy System containing a thermostat-controlled cell holder at 30° C.

CO [methanol]
inhibition of S-ADH activity ([1]; saturating acetone, alcohol at about 13-fold over the Km value for acetone, data not shown): no inhibition was observed

NC(=O)C1=CN([C@@H]2O[C@H](COP(=O)(O)OP(=O)(O)OC[C@H]3O[C@@H](n4cnc5c(N)ncnc54)[C@H](O)[C@@H]3O)[C@@H](O)[C@H]2O)C=CC1 [NADH, nicotinamide adenine dinucleotide, reduced form]
Km ([1]; acetone at fixed saturating concentration, read-out: Km for NADH): 5.1 ± 0.4 µM
ability to serve as electron donor in acetone reduction assays ([1]; data not shown): could serve as the electron donor

CCCC(C)O (stereo not drawn) [2-Pentanol]
Relative S-ADH Activity (%) T. brockii, alcohol oxidation (S-ADH from T. brockii; alcohol oxidation rates, pH 7.6, 2.5 mM substrate, 0.2 mM NADP+, 2-propanol = 100, NA = no activity detected): 38%
Relative S-ADH Activity (%) JOB 5, alcohol oxidation [2]: 68%
Relative S-ADH Activity (%) X. Py2, alcohol oxidation [1]: 157%
Relative S-ADH Activity (%) C. boidinii, alcohol oxidation (S-ADH from C. boidinii): 22%
Relative S-ADH Activity (%) IP-1, alcohol oxidation (S-ADH from strain IP-1): 18%

NC(=O)C1=CN([C@@H]2O[C@H](COP(=O)(O)OP(=O)(O)OC[C@H]3O[C@@H](n4cnc5c(N)ncnc54)[C@H](OP(=O)(O)O)[C@@H]3O)[C@@H](O)[C@H]2O)C=CC1 [NADPH, nicotinamide adenine dinucleotide phosphate, reduced form]
ability to serve as electron donor in acetone reduction assays ([1]; data not shown): not

CCC(=O)CC [3-Pentanone]
Relative S-ADH Activity (%) T. brockii, ketone reduction (S-ADH from T. brockii): 49%
Relative S-ADH Activity (%) JOB 5, ketone reduction [2]: 26%
Relative S-ADH Activity (%) X. Py2, ketone reduction [1]: 180%
Relative S-ADH Activity (%) C. boidinii, ketone reduction (S-ADH from C. boidinii): 60%
Relative S-ADH Activity (%) IP-1, ketone reduction (S-ADH from strain IP-1): 5%

CCCCCO [1-Pentanol]
specific activity, alcohol oxidation [1]: No activity
Relative S-ADH Activity (%) C. boidinii, alcohol oxidation (S-ADH from C. boidinii): 8%

CCCC(C)=O [2-Pentanone]
Relative S-ADH Activity (%) T. brockii, ketone reduction (S-ADH from T. brockii): 59%
Relative S-ADH Activity (%) JOB 5, ketone reduction [2]: 185%
Relative S-ADH Activity (%) X. Py2, ketone reduction [1]: 198%
Relative S-ADH Activity (%) C. boidinii, ketone reduction (S-ADH from C. boidinii): 16%
Relative S-ADH Activity (%) IP-1, ketone reduction (S-ADH from strain IP-1): 44%

CCCCO [1-Butanol]
Relative S-ADH Activity (%) JOB 5, alcohol oxidation [2]: 10%
activity as substrate and inhibition of acetone carboxylation activity [3]: not active nor did they inhibit acetone carboxylation activity
Relative S-ADH Activity (%) X. Py2, alcohol oxidation [1]: 7%
specific activity, alcohol oxidation [1]: 1.7±0.2 μmol alcohol oxidized min^−1mg^−1 protein
Relative S-ADH Activity (%) C. boidinii, alcohol oxidation (S-ADH from C. boidinii): 6%
Relative S-ADH Activity (%) IP-1, alcohol oxidation (S-ADH from strain IP-1): 2%
